Experimental data: patent publication US8216782B2, “PTTG1 as a biomarker for cancer treatment” (Cedars-Sinai Medical Center, priority 2008, dated 2012)

Columns and labels:
HCT116 PTTG1−/− cells [1] = test: WST-1 cell proliferation assay; assay type: cell-based; conditions: for sensitivity of PTTG1−/− cell growth versus WT (WST-1): PTTG1−/− vs WT HCT116 cells; for effect on the WT versus PTTG1−/− difference in response to doxorubicin: 3 μM inhibitor pre-incubation or siRNA, 0.63 μM doxorubicin
Protocol: (§1) FIG. 4 depicts that PTTG1 regulates cell response to Aurora Kinase inhibition, in accordance with an embodiment of the present invention. (A) PTTG1^−/− cell proliferation was attenuated in response to Aurora Kinase A siRNA (mean±S.D., n=3. P<0.05 vs WT). Cells were seeded into 96-well plates, cultured overnight, and then transfected with siRNAs (100 nM). After 72 hours, premixed WST-1 cell proliferation reagent (10 ul) was added to each well. Cells were incubated for a further four hours and shaken thoroughly for one minute before measurement. […] Cells were seeded into 96-well plates, cultured overnight, and then treated with drug as indicated for 48 hours. Viable cells were measured using Premixed WST-1 cell proliferation reagent. (C) Anchorage-dependent colony formation assay was performed as described herein. […] (mean±S.D., n=3. P<0.05 vs WT) (D) Western blot showing that over-expressed PTTG1 rescued PTTG1^−/− sensitivity to Aurora Kinase inhibitor III (12.5 uM) (mean±S.D., n=3. P>0.05 vs WT); PTTG1 knock-down enhanced WT cell sensitivity to Aurora Kinase inhibitor III (12.5 uM) (mean±S.D., n=3. P>0.05 vs PTTG1^−/−). PTTG1^−/−=PTTG1-null or KO cells.
(§2) Cell proliferation was evaluated using WST-1 cell proliferation reagent (obtained from Clontech Laboratories, Inc.; Mountain View, Calif.). Briefly, 90 μl cells were seeded into 96-well plates and cultured overnight, treated with drugs for 48 hours, and 10 μl premixed WST-1 cell proliferation reagent added. Cells were incubated for a further four hours, shaken and absorbance measured at 450 nm using a Victor 3 multiwell plate reader (obtained from PerkinElmer, Inc.; Waltham, Mass.). Cell viability rate was calculated for each well as A450 treated cells/A450 control cells×100% (A450: OD value at 450 nm).

Aurora Kinase A [2] = test: Western blot of siRNA knock down; assay type: cell-based; conditions: WT and PTTG1−/− cells
Protocol: Protein extracts were resolved by Nupage 4-12% Bis-Tris Gel (obtained from Invitrogen). Samples were electro-blotted onto PVDF membrane (obtained from Invitrogen), and membranes blocked and incubated with primary antibody. Donkey anti-rabbit- or anti-mouse (obtained from GE Healthcare; NJ) antibodies were conjugated to horseradish […] to reveal immunocomplexes by enhanced chemiluminescence (obtained from Thermo Scientific Pierce Protein Research Products).
Aurora Kinase A siRNA (AM51331, Sense: Described herein as SEQ. ID. NO.: 5; Antisense: Described herein as SEQ. ID. NO.: 6) and PTTG1 siRNA (16706, Sense: Described herein as SEQ. ID. NO.: 7; Antisense: Described herein as SEQ. ID. NO.: 8) were purchased from Ambion, Inc. (TX). Transfections were carried out with lipofectamine 2000 according to protocol.

HCT116 PTTG1−/− cells [3] = test: BrdU incorporation assay; assay type: cell-based
Protocol: The BrdU incorporation assay was carried out using a commercial kit. Briefly, culture cells in 96-well microplates in a final volume of 100 ul culture medium per well. After treatment, add 10 ul BrdU labeling solution per well (final concentration: 10 uM BrdU) and incubate for 2-18 h at 37° C. Carefully remove the culture medium and wash cells twice with 250 ul wash medium containing 10% serum per well. Cells fixed and treated with nucleases working solution for 30 min at 37° C. The incorporated BrdU is detected using anti-BrdU-POD, Fab fragments and peroxidase substrate ABTS. The absorbances of the samples are measured at 405 nm against the background control, using a Victor 3 multiwell plate reader.

Aurora Kinase A [4] = conditions: Gadea and Ruderman, 2005; cited from earlier work
HCT116 WT cells = test: WST-1 cell proliferation assay; assay type: cell-based
Protocol: as §1, §2

HCT116 PTTG1−/− cells [5] = test: Anchorage-dependent colony formation assay; assay type: cell-based; conditions: PTTG1−/− vs WT HCT116 cells
Protocol: Briefly, 20,000 cells were plated in a six-well culture dish, allowed to attach overnight and treated with depicted drug concentrations. Cells were cultured in standard culture medium containing indicated treatments for twelve days and medium re-freshened every three days. Colonies were stained with 0.5% crystal violet in methanol/acetic acid (3:1) and those composed of >50 cells were counted.

Aurora Kinase A [6] = target: T1, Aurora Kinase A (Homo sapiens, UniProt O14965); test: Protein microarray screening (Protoarray); assay type: binding; set-up: purchased Invitrogen Protoarray nc-v3; conditions: biotinylated PTTG1 probe
T1 sequence (O14965 1-403): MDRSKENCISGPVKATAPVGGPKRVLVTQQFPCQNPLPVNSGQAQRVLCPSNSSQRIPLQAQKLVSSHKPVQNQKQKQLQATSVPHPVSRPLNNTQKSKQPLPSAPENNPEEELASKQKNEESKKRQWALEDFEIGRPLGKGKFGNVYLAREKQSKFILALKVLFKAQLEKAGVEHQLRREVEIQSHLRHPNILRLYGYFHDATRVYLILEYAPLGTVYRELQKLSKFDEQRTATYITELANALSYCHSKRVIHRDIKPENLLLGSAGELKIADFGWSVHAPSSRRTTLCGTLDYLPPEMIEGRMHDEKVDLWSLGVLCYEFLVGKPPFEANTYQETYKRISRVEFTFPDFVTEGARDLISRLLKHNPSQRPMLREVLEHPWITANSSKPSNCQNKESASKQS
Protocol: (§3) FIG. 1 depicts that PTTG1 interacts with Aurora Kinase A, in accordance with an embodiment of the present invention. (A) PTTG1 was biotin-labeled and incubated with the protein microarray. Attached biotinylated PTTG1 was probed with Streptavidin-Alexa Fluor 647 conjugate. […] (B) Aurora Kinase A antibody was used to co-immunoprecipitate PTTG1, and PTTG1 antibody used to co-immunoprecipitate Aurora Kinase A respectively.
(§4) The human Protoarray nc3.0 study was performed as described by the manufacturer (obtained from Invitrogen Corporation; Carlsbad, Calif.). PTTG1 protein was biotinylated using biotin-XX sulfosuccinimidyl ester, purified by gel filtration, and assessed by Western blot. Appropriate protein aliquots were used to probe a protein microarray (Protoarray nc-v3; obtained from Invitrogen) and attached biotinylate PTTG1 was probed with Streptavidin-Alexa Fluor 647 conjugate. Arrays were scanned by GenePix 4000B (obtained from Molecular Devices Corporation; Sunnyvale, Calif.), and images analyzed using ProtoArray Prospector (Invitrogen).

Aurora Kinase A [7] = target: T1, Aurora Kinase A; test: In vitro kinase activity assay (histone H3 Ser10 phosphorylation); assay type: biochemical; set-up: purchased Cell Signaling; conditions: PTTG1 0.5, 1, 2 μg
Text: FIG. 3 depicts that PTTG1 attenuates Aurora Kinase A function, in accordance with an embodiment of the present invention. (A) Over-expressed PTTG1 caused abnormal spindle formation as evidenced by unevenly distributed PTTG1-GFP and Aurora Kinase A (white arrows). (B) Western blot showing that over-expressed PTTG1 suppressed Aurora Kinase A T288 auto-phosphorylation and histone H3 Ser10 phosphorylation in HCT116 cells compared to controls. (C) Over-expressed PTTG1 repressed histone H3 Seri 0 phosphorylation as shown by immunofluorescence (white arrows). Scale bar=5 μm. (D) Degradation of mitotic proteins. HCT116 cells were synchronized with 400 ng/ml nocodazole for twelve hours and mitotic cells collected by shake-off, washed and cultured in fresh medium at 37° C. to allow progression of G2/M, and cells harvested at the indicated time points. […] (E) In vitro kinase assay. Aurora Kinase A, histone H3 and increasing PTTG1 or GST-His levels (0.5, 1, 2 μg) were brought to a 30 μl volume reaction system as described herein. After incubations at 37° C. for 20 minutes, reactions were halted and analyzed by Western blotting using histone H3 ser10 antibody. […]
Assays were performed using a modified Aurora kinase A assay kit obtained from Cell Signaling. […] Proteins were separated by standard SDS-PAGE and analyzed by Western blotting.

ribosomal protein S10 = target: T2, ribosomal protein S10 (Homo sapiens, UniProt P46783); test: Protein microarray screening (Protoarray); assay type: binding; conditions: biotinylated PTTG1 probe
T2 construct: purchased Invitrogen Protoarray nc-v3
Protocol: as §3, §4

## COc1cc2ncnc(Nc3ccc(NC(=O)c4ccccc4)cc3)c2cc1OC [Aurora Kinase Inhibitor II, 4-(4′-Benzamidoanilino)-6,7-dimethoxyquinazoline]
HCT116 PTTG1−/− cells [1]
  sensitivity of PTTG1−/− cell growth versus WT (WST-1): more susceptible than WT cells

## Aurora Kinase A siRNA: siRNA AM51331, SEQ. ID. NO.: 5 and 6, purchased from Ambion (chain 1 GGCAACCAGUGUACCUCAU; chain 2 AUGAGGUACACUGGUUGCC; chemistry not given here; listed as Homo sapiens)
HCT116 PTTG1−/− cells [1]
  effect on the WT versus PTTG1−/− difference in response to doxorubicin: abolished the differences
  sensitivity of PTTG1−/− cell growth versus WT (WST-1): attenuated
Aurora Kinase A [2]
  Aurora Kinase A expression: efficiently knocked down Aurora Kinase A expression

## CC(=O)N[C@@H](CS)C(=O)O [N-acetyl cysteine (NAC), N-acetyl cysteine]
HCT116 PTTG1−/− cells [3]
  effect of ROS quencher on PTTG1−/− cell sensitivity to ROS-generating agents: rescue PTTG1−/− cells sensitivity

## S=C=NCCc1ccccc1 [PEITC, phenethyl isothiocyanate]
HCT116 PTTG1−/− cells [3]
  sensitivity of PTTG1−/− cells to ROS-generating agents: enhanced sensitivity

## COc1cc2c(Nc3ccc(NC(=O)c4ccccc4)cc3)ncnc2cc1OCCCN1CCOCC1 [ZM 447439]
Aurora Kinase A [4]
  effect on chromosome condensation and spindle: retards progression of chromosome condensation, leading to a disorganized spindle

## O=C(Nc1cccc(Nc2nccc(Nc3cccc(C(F)(F)F)c3)n2)c1)C1CC1 [Aurora Kinase Inhibitor III, Cyclopropanecarboxylic acid-(3-(4-(3-trifluoromethyl-phenylamino)-pyrimidin-2-ylamino)-phenyl)-amide]
HCT116 PTTG1−/− cells [1]
  effect on the WT versus PTTG1−/− difference in response to doxorubicin: abolished the different response
  sensitivity of PTTG1−/− cell growth versus WT (WST-1): more sensitive
HCT116 PTTG1−/− cells [1]; Homo sapiens, HCT-116, PTTG1-null HCT116 cells, 12.5 uM for 48 h, read-out: cells remaining viable
  viability at 12.5 µM: 56%
HCT116 WT cells; Homo sapiens, HCT-116, WT cells, 12.5 uM for 48 h, read-out: cells remaining viable
  viability at 12.5 µM: 73%
HCT116 PTTG1−/− cells [5]
  sensitivity of PTTG1−/− cells versus WT (colony formation): more sensitive

## OO [H2O2]
HCT116 PTTG1−/− cells [3]
  sensitivity of PTTG1−/− cells to ROS-generating agents: enhanced sensitivity

## Nc1nc(Nc2ccc(S(N)(=O)=O)cc2)nn1C(=O)c1c(F)cccc1F [Aurora Kinase/CDK inhibitor, 4-(5-Amino-1-(2,6-difluorobenzoyl)-1H-[1,2,4]triazol-3-ylamino)-benzenesulfonamide]
HCT116 PTTG1−/− cells [1]
  sensitivity of PTTG1−/− cell growth versus WT (WST-1): more susceptible than WT cells

## PTTG1 siRNA: siRNA 16706, SEQ. ID. NO.: 7 and 8, purchased from Ambion (chain 1 GUCUGUAAAGACCAAGGGA; chain 2 UCCCUUGGUCUUUACAGAC; listed as RNA, chemistry not given here; listed as Homo sapiens)
HCT116 WT cells; WT HCT116 cells, inhibitor III 12.5 uM
  effect of PTTG1 knock down on sensitivity to Aurora Kinase inhibitor III: increased HCT116 cell sensitivity

B1: PTTG1: pituitary tumor transforming gene protein (securin); His-PTTG1 expressed in insect cells, biotinylated for the array (protein, listed as Homo sapiens)
chain: MATLIYVDKENGEPGTRVVAKDGLKLGSGPSIKALDGRSQVSTPRFGKTFDAPPALPKATRKALGTVNRATEKSVKTKGPLKQKQPSFSAKKMTEKTVKAKSSVPASDDAYPEIEKFFPFNPLDFESFDLPEEHQIAHLPLSGVPLMILDEERELEKLFQLGPPSPVKMPSPPWESNLLQSPSSILSTLDVELPPVCCDIDI
modifications: His tag, biotinylated
notes: pituitary tumor transforming gene protein (securin); His-PTTG1 expressed in insect cells, biotinylated for the array
Aurora Kinase A [6]
  Z-score of interaction: 4.90
Aurora Kinase A [7]
  Aurora Kinase A phosphorylation of histone H3: dose-dependently inhibits
Ribosomal protein S10
  Z-score of interaction: 3.34
